Like-named read-outs stand apart in the source and are kept apart here. Positions of bridges follow the written chain, without caps; N, C: chain ends. Non-standard residues stand in square brackets, D forms with d. Residues, ends and D or L forms follow the SMILES beside them. Phe(4-COOH) = N[C@@H](Cc1ccc(C(=O)O)cc1)C(=O)O; Arg(Me2s) = CN=C(NC)NCCC[C@H](N)C(=O)O; 2Pal = N[C@@H](Cc1ccccn1)C(=O)O
Legend:
Experiment in all cases: cell-based
hNav1.3 = hNav1.3 (Homo sapiens, UniProt Q9NY46); conditions: IonWorks Quattro, use, […], read-out: IWQ Use Nav1.3
hNav1.3, sequence (Q9NY46 whole entry, looked up): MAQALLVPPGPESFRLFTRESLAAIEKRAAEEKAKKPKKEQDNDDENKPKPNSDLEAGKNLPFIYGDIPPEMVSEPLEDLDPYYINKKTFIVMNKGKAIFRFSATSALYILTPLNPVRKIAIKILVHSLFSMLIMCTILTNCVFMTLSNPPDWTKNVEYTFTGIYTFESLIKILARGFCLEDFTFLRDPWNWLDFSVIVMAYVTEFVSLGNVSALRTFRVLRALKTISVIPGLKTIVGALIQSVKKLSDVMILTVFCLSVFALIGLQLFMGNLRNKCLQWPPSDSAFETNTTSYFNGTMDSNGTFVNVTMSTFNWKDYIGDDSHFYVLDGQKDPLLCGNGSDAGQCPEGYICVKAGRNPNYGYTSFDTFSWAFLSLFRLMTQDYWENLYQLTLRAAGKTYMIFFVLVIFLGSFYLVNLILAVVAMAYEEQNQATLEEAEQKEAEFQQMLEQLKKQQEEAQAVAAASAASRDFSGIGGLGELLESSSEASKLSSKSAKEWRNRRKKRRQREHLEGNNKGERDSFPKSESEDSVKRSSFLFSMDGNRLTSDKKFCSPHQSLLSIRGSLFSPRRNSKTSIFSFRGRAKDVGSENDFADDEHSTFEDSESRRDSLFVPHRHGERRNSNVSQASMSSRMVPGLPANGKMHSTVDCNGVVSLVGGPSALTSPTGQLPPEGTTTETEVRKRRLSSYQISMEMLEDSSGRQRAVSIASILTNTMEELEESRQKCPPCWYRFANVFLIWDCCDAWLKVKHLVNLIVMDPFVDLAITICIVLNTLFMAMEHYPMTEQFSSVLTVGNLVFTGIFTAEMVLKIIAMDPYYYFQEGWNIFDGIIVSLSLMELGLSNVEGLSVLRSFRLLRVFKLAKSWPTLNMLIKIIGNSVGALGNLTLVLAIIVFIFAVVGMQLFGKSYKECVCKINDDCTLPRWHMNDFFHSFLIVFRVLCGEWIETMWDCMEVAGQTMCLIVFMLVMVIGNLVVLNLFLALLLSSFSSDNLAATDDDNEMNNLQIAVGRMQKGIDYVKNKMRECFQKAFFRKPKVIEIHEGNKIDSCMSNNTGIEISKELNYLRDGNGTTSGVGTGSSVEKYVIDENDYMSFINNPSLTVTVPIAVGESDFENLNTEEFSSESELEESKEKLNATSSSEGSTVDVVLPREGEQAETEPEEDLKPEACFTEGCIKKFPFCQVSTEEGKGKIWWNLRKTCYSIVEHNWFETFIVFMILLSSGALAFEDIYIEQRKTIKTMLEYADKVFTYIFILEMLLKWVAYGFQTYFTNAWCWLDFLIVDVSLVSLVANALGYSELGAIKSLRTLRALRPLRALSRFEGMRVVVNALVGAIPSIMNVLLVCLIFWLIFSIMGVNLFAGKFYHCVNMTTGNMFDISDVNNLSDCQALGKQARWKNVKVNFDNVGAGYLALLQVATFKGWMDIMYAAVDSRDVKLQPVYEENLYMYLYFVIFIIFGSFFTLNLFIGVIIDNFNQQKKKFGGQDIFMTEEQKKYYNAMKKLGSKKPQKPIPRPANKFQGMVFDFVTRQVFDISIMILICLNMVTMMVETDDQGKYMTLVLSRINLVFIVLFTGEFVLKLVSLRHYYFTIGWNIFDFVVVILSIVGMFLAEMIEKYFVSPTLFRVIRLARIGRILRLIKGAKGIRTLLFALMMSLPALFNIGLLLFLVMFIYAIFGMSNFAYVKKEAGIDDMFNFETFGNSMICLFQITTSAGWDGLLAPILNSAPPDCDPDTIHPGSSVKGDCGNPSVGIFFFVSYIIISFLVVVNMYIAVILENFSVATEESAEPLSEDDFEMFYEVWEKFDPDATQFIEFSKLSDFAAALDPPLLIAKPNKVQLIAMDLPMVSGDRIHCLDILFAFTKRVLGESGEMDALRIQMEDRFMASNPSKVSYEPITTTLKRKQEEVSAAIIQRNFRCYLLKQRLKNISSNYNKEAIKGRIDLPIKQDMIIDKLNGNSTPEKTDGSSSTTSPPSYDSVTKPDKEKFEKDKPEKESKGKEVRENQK

hNav1.7 = hNav1.7 (Homo sapiens, UniProt Q15858); type: cell-based; conditions: IonWorks Quattro, use, […], read-out: IWQ Use Nav1.7
hNav1.5 = hNav1.5 (Homo sapiens, UniProt Q14524); conditions: IonWorks Quattro, use, […], read-out: IWQ Use Nav1.5
hNav1.5, sequence (Q14524 whole entry, looked up): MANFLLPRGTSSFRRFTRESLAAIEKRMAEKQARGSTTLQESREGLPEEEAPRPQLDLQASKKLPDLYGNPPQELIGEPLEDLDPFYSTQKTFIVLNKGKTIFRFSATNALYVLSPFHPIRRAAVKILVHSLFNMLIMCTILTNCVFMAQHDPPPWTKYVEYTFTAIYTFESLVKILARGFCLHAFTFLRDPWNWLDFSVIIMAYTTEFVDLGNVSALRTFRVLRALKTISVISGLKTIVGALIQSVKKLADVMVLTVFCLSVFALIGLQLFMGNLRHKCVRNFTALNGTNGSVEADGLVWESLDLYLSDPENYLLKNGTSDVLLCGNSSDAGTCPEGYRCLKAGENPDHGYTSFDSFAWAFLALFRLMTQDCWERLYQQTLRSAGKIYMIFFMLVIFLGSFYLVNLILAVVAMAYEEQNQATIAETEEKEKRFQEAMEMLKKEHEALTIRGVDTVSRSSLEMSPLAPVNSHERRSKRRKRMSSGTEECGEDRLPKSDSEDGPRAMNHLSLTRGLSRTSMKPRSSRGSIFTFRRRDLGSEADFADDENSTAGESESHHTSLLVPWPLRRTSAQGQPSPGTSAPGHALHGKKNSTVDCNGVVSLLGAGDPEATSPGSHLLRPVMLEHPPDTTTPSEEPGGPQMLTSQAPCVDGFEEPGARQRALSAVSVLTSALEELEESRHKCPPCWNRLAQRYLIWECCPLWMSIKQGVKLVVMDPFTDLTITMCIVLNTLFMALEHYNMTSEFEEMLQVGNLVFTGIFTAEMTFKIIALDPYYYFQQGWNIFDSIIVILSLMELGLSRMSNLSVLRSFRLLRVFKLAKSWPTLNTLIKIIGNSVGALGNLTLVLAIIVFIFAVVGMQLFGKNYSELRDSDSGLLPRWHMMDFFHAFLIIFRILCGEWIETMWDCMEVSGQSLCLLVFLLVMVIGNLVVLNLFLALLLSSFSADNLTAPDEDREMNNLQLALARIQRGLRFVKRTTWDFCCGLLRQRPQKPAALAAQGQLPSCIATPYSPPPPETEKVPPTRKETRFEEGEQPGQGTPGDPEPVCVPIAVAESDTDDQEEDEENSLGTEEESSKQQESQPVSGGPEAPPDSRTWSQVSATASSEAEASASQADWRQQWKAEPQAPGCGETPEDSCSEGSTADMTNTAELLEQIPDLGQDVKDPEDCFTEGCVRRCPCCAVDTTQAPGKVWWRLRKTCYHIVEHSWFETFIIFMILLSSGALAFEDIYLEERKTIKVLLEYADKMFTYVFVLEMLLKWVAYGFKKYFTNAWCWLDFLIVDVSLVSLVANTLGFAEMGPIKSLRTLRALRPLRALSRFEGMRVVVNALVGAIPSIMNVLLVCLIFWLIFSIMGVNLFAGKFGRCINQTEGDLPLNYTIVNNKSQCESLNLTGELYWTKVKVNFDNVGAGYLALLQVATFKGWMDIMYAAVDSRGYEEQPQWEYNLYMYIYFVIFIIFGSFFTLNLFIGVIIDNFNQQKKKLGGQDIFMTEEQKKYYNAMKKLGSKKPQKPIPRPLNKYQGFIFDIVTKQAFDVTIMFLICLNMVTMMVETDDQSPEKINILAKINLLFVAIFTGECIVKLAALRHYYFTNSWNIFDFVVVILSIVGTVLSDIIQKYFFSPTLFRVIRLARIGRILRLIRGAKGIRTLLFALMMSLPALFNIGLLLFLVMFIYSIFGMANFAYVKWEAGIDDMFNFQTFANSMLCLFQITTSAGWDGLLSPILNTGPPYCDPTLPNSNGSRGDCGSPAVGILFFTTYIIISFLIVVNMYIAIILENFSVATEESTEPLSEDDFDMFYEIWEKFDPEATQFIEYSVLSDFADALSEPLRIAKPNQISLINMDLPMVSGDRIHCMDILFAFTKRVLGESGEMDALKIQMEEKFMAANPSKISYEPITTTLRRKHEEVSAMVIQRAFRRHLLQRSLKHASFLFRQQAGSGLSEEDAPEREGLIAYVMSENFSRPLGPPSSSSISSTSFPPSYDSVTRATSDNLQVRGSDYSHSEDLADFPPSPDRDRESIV

Work on `CC[C@H](C)[C@@H]1NC(=O)[C@@H]2CSSC[C@@H]3NC(=O)[C@H](C(C)C)NC(=O)[C@H](CC(C)C)NC(=O)[C@H](CC(N)=O)NC(=O)[C@@H]4CCCN4C(=O)[C@H](CCCNC(=N)N)NC(=O)[C@H](CSSC[C@H](NC(=O)[C@@H](N)CC(=O)O)C(=O)N[C@@H](CC(C)C)C(=O)NCC(=O)N[C@@H](Cc4ccccc4)C(=O)N[C@@H](CCSC)C(=O)N[C@@H](CCCNC(=N)N)C(=O)N[C@@H](CCCCN)C(=O)N2)NC(=O)[C@H](CSSC[C@@H](C(=O)N[C@@H](CCCCN)C(=O)N[C@@H](Cc2ccc(O)cc2)C(=O)N[C@H](C(=O)N[C@@H](Cc2ccccc2)C(N)=O)C(C)C)NC(=O)[C@H](Cc2ccc(C(=O)O)cc2)NC(=O)[C@H](CCCCN)NC(=O)[C@H](Cc2c[nH]cn2)NC(=O)[C@H]([C@@H](C)O)NC(=O)[C@H](CCCNC(=N)N)NC(=O)[C@H](CO)NC3=O)NC(=O)[C@H](CCCCN)NC(=O)[C@H](CC(=O)O)NC(=O)[C@H](CC(N)=O)NC(=O)[C@H](CC(=O)O)NC(=O)[C@@H]2CCCN2C1=O` [compound 363] (H-DCLGFMRKCIPDNDKCCRPNLVCSRTHK[Phe(4-COOH)]CKYVF-NH2; disulfide 2-17, 9-23, 16-30) yielded an IC50 (hNav1.3; Table 24) of 14.9 µM, an IC50 (hNav1.7; Table 24) of 15 µM and an IC50 (hNav1.5; Table 24) of 18.8 µM.

With `CC[C@H](C)[C@@H]1NC(=O)[C@@H]2CSSC[C@@H]3NC(=O)[C@H](C(C)C)NC(=O)[C@H](CC(C)C)NC(=O)[C@H](CC(N)=O)NC(=O)[C@@H]4CCCN4C(=O)[C@H](CCCNC(=N)N)NC(=O)[C@H](CSSC[C@H](NC(=O)[C@@H](N)CC(=O)O)C(=O)N[C@@H](CC(C)C)C(=O)NCC(=O)N[C@@H](Cc4ccccc4)C(=O)N[C@@H](CCSC)C(=O)N[C@@H](CCCNC(=N)N)C(=O)N[C@@H](CCCCN)C(=O)N2)NC(=O)[C@H](CSSC[C@@H](C(=O)N[C@@H](Cc2ccccn2)C(=O)N[C@@H](Cc2ccc(O)cc2)C(=O)N[C@H](C(=O)N[C@@H](Cc2ccccc2)C(N)=O)C(C)C)NC(=O)[C@H](Cc2c[nH]c4ccccc24)NC(=O)[C@H](CCCCN)NC(=O)[C@H](Cc2c[nH]cn2)NC(=O)[C@H]([C@@H](C)O)NC(=O)[C@H](CCCNC(=N)N)NC(=O)[C@H](CO)NC3=O)NC(=O)[C@H](CCCCN)NC(=O)[C@H](CC(=O)O)NC(=O)[C@H](CC(N)=O)NC(=O)[C@H](CC(=O)O)NC(=O)[C@@H]2CCCN2C1=O` [compound 364] (H-DCLGFMRKCIPDNDKCCRPNLVCSRTHKWC[2Pal]YVF-NH2; disulfide 2-17, 9-23, 16-30) the IC50 (hNav1.3; Table 25) was 16.9 µM, the IC50 (hNav1.7; Table 25) was 11 µM and the IC50 (hNav1.5; Table 25) was 9.49 µM.

In the case of `CC[C@H](C)[C@@H]1NC(=O)[C@@H]2CSSC[C@@H]3NC(=O)[C@H](C(C)C)NC(=O)[C@H](CC(C)C)NC(=O)[C@H](CC(N)=O)NC(=O)[C@@H]4CCCN4C(=O)[C@H](CCCNC(=N)N)NC(=O)[C@H](CSSC[C@H](NC(=O)[C@@H](N)CC(=O)O)C(=O)N[C@@H](CC(C)C)C(=O)NCC(=O)N[C@@H](Cc4ccccc4)C(=O)N[C@@H](CCSC)C(=O)N[C@@H](CCCNC(=N)N)C(=O)N[C@@H](CCCCN)C(=O)N2)NC(=O)[C@H](CSSC[C@@H](C(=O)N[C@@H](CCCNC(=NC)NC)C(=O)N[C@@H](Cc2ccc(O)cc2)C(=O)N[C@H](C(=O)N[C@@H](Cc2ccccc2)C(N)=O)C(C)C)NC(=O)[C@H](Cc2c[nH]c4ccccc24)NC(=O)[C@H](CCCCN)NC(=O)[C@H](Cc2c[nH]cn2)NC(=O)[C@H]([C@@H](C)O)NC(=O)[C@H](CCCNC(=N)N)NC(=O)[C@H](CO)NC3=O)NC(=O)[C@H](CCCCN)NC(=O)[C@H](CC(=O)O)NC(=O)[C@H](CC(N)=O)NC(=O)[C@H](CC(=O)O)NC(=O)[C@@H]2CCCN2C1=O` [compound 365] (H-DCLGFMRKCIPDNDKCCRPNLVCSRTHKWC[Arg(Me2s)]YVF-NH2; disulfide 2-17, 9-23, 16-30), the IC50 (hNav1.3; Table 25) is reported as 4.55 µM, the IC50 (hNav1.7; Table 25) is reported as 4.15 µM and the IC50 (hNav1.5; Table 25) is reported as 14.2 µM.
